Structures can show the parent of a compound that is named as a salt.
What follows are molecules tested against T1, rh beta tryptase (Homo sapiens, UniProt Q15661) (assay: tryptase inhibition test (cleavage of N-p-tosyl-Gly-Pro-Lys-para-nitroaniline, p-nitroaniline measured at 405 nm)). Conditions: Tris HCl buffer pH 7.4 with calcium and heparin; substrate 0.6 mM; 5 minutes' pre-incubation, 5 minutes incubation at 37° C.
T1 construct: purchased Promega
Assay type: biochemical
Method: The compounds according to the invention are characterised by their tryptase-inhibiting activity. This ability to inhibit tryptase was investigated using the test described as follows. The measurement is carried out in Tris HCl buffer (100 mM), which additionally contains calcium (5 mM) and heparin ([…]), at pH 7.4. The standard used is rh beta tryptase which may be obtained commercially from Promega, for example. The substrate used is N-p-tosyl-Gly-Pro-Lys-para-nitroaniline in a concentration of 0.6 mM. The substrate is digested with tryptase to form p-nitroaniline which can be measured at 405 nm. Usually, an incubation period of 5 minutes and an incubation temperature of 37° C. are chosen. The enzyme activity used is 0.91 U/ml. The measurements are carried out in an Autoanalyser (Cobas Bio) made by Hofmann LaRoche. The potential inhibitory substances are used in concentrations of 10 μM in the screening, the inhibition of the tryptase being given in percent. The IC50 is determined at over 70% inhibition (concentration at which 50% of the enzyme activity is inhibited). After 5 minutes' pre-incubation of the potential inhibitory substances, the substrate is added to start the reaction, the formation of p-nitroaniline being taken as a measurement of the enzyme activity after 5 minutes, after testing the linearity.

T1 sequence (Q15661 31-275): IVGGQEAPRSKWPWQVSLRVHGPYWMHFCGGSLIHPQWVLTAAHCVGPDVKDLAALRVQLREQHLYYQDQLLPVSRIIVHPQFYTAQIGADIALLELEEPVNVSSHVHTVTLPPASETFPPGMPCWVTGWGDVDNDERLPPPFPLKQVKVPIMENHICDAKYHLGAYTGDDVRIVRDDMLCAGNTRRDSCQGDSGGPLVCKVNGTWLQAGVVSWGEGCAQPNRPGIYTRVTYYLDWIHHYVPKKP

Structure (SMILES) | IC50
Cn1c(CCc2ccc(C(=N)N)cc2)nc2cc(N(Cc3cccc4ccccc34)C(=O)CCC3CCN(C(c4ccccc4)c4ccccc4)CC3)ccc21 [Example 64, N-{2-[2-(4-Amidinophenyl)-ethyl]-1-methyl-benzimidazol-5-yl}-N-( - naphthylmethyl)-[3-(1-diphenylmethyl-piperidin-4-yl)-propionamide]-trihydrochloride] | 25 nM
CN(C)CCN(C)CC(=O)N(Cc1cccc2ccccc12)c1ccc2c(c1)nc(CCc1ccc(C(=N)N)cc1)n2C [Example 41, N-{2-[2-(4-Amidinophenyl)-ethyl]-1-methyl-benzimidazol-5-yl}-N-(α-naphthylmethyl)-[2-(N-(2-dimethylaminoethyl)-N-methylamino)-acetamide]-trihydrochloride] | 18 nM
Cn1c(CCc2ccc(C(=N)N)cc2)nc2cc(N(Cc3cccc4ccccc34)C(=O)CNCc3ccc(N4CCCC4)cc3)ccc21 [Example 82, N-{2-[2-(4-Amidinophenyl)-ethyl]-1-methyl-benzimidazol-5-yl}-N-( - naphthylmethyl)-[2-(N-4-pyrrolidin-1-ylbenzylamino)-acetamide]-dihydrochloride] | 4.9 nM
Cn1c(CCc2ccc(C(=N)N)cc2)nc2cc(N(Cc3cccc4ccccc34)C(=O)CN3CCN(c4ccccn4)CC3)ccc21 [Example 40, N-{2-[2-(4-Amidinophenyl)-ethyl]-1-methyl-benzimidazol-5-yl}-N-( - naphthylmethyl)-[2-(1-pyridin-2-yl-piperazin-4-yl)-acetamide]-dihydro-chloride] | 13 nM
Cn1c(CCc2ccc(C(=N)N)cc2)nc2cc(N(Cc3cccc4ccccc34)C(=O)CCCc3ccc(N)cc3)ccc21 [Example 47, N-{2-[2-(4-Amidinophenyl)-ethyl]-1-methyl-benzimidazol-5-yl}-N-( - naphthylmethyl)-[4-(4-aminophenyl)-butyroamide]-dihydrochloride] | 12 nM
CN(CC(=O)N(Cc1cccc2ccccc12)c1ccc2c(c1)nc(CCc1ccc(C(=N)N)cc1)n2C)Cc1ccccc1 [Example 63, N-{2-[2-(4-Amidinophenyl)-ethyl]-1-methyl-benzimidazol-5-yl}-N-( - naphthylmethyl)-[2-(N-benzyl-N-methylamino)-acetamide]-dihydrochloride] | 28 nM
Cn1c(CCc2ccc(C(=N)N)cc2)nc2cc(N(Cc3cccc4ccccc34)C(=O)CN3CCC(O)(Cc4ccccc4)CC3)ccc21 [Example 69, N-{2-[2-(4-Amidinophenyl)-ethyl]-1-methyl-benzimidazol-5-yl}-N-( - naphthylmethyl)-[2-(4-benzyl-4-hydroxypiperidin-1-yl)-acetamide]-dihydrochloride] | 18 nM
Cn1c(CCc2ccc(C(=N)N)cc2)nc2cc(N(Cc3cccc4ccccc34)C(=O)COCc3ccc([N+](=O)[O-])cc3)ccc21 [Example 75, N-{2-[2-(4-Amidinophenyl)-ethyl]-1-methyl-benzimidazol-5-yl}-N-(-- naphthylmethyl)-[2-(4-nitrobenzyloxy)-acetamide]-hydrochloride] | 17.2 nM
Cn1c(CCc2ccc(C(=N)N)cc2)nc2cc(N(Cc3cccc4ccccc34)C(=O)CNCc3ccncc3)ccc21 [Example 48, N-{2-[2-(4-Amidinophenyl)-ethyl]-1-methyl-benzimidazol-5-yl}-N-( - naphthylmethyl)-[2-(pyridin-4-ylmethylamino)-acctamide]-dihydrochloride] | 38 nM
Cn1c(CCc2ccc(C(=N)N)cc2)nc2cc(N(Cc3cccc4ccccc34)C(=O)CCC3CCNCC3)ccc21 [Example 38, N-{2-[2-(4-Amidinophenyl)-ethyl]-1-methyl-benzimidazol-5-yl}-N-( - naphthylmethyl)-[3-(piperidin-4-yl)-propionamide]-dihydrochloride] | 47 nM
Cn1c(CCc2ccc(C(=N)N)cc2)nc2cc(N(Cc3ccccc3)C(=O)CCCNC(=N)N)ccc21 [Example 39, N-{2-[2-(4-Amidinophenyl)-ethyl]-1-methyl-benzimidazol-5-yl}-N-benzyl-[4-guanidino-butanoic acid amide]-dihydrochloride] | 77 nM

Reference: US6407130B1, “Carboxamide-substituted benzimidazoles having tryptase-inhibiting activity” (Boehringer Ingelheim Pharma KG, priority 1999, dated 2002)
